Test results reported in patent US10000488B2, “Heterocyclic compound” (TAKEDA PHARMACEUTICAL COMPANY LIMITED, priority 2014, dated 2018).

What was measured:
RORγt [1] = molecular target: T1, RORγt (Homo sapiens, UniProt P51449); assay: Cofactor recruitment test (Alpha Screen, biotinylated SRC-1 peptide); assay type: biochemical; settings: read-out: signal value inhibitory rate (%) at test compound 1 μM
T1 sequence (P51449 1-497 isoform P51449-2): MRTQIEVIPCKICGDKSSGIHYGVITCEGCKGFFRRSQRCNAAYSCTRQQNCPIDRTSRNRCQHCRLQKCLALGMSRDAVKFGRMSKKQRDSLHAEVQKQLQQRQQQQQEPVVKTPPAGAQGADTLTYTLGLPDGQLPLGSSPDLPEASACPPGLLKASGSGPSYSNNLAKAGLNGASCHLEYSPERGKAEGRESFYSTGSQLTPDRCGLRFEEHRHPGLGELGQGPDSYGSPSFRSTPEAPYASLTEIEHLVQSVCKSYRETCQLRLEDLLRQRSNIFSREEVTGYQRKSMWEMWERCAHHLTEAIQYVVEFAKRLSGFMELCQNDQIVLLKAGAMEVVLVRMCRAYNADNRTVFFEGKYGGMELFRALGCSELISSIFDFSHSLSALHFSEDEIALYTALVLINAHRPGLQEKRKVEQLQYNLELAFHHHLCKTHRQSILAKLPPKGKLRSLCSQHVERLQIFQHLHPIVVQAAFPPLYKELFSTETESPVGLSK
Protocol: Cofactor Recruitment Test
Cofactor recruitment test was performed by Alpha Screen (Histidine Detection Kit, PerkinElmer) method. First, a test compound was diluted with an assay buffer (50 mM Tris-HCl (pH 7.5), 50 mM KCl, 1 mM DTT, 0.1% BSA) and added to a 384 well plate by 5 μL. […] The mixture was stood in a dark place for 1 hr, and the signal value was measured by Envision (PerkinElmer).

RORγt [2] = molecular target: T1, RORγt; assay: Jurkat reporter test (human IL-17 ROR response element luciferase reporter, RORγt vector); assay type: cell-based; settings: test compound 3 μM; Jurkat cells; read-out: luminescence level inhibitory rate (%) at test compound 3 μM
Procedure, shortened: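 Jurkat cells were electroporated (1350 V, 10 ms, 3 pulses) with the reporter constructs and plated in RPMI with 10% lipid-reduced FCS, 10 mM HEPES pH 7.5 and 5 μM lovastatin. After overnight culture with compound, luciferase activity was measured by luminescence following a 10 min room-temperature incubation with Bright-Glo.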

RORγt [3] = molecular target: T1, RORγt; assay: RORγt binding test using fluorescent-labeled synthetic ligand (TR-FRET); settings: test compound 1 μM; read-out: binding inhibitory rate (%) of fluorescent-labeled synthetic ligand to RORγt at test compound 1 μM
Procedure, shortened: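 Compound displacement of a fluorescent-labeled synthetic ligand from His-tagged RORγt was read by TR-FRET with a terbium anti-His antibody. Buffer was 20 mM Tris-HCl pH 7.5, 100 mM NaCl, 1 mM DTT and 0.1% BSA, with stocks of 240 nM protein, 12 μM ligand and 8 nM antibody (pre-mix, not final). Incubations were 20 min plus 20 min at room temperature, with excitation at 320 nm, emission at 520 nm and a 100 μs delay.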

Row | Structure (SMILES) | inhibition at 1 µM (RORγt [1]) [%] | inhibition at 3 µM (RORγt [2]) [%] | inhibition at 1 µM (RORγt [3]) [%]
1 | Cc1cc(C(=O)N[C@@H]2CCCN(C(=O)Nc3ccc4c(c3)c(=O)n(CC3CC3)c(=O)n4C(C)C)C2)ccc1C#N [Example 249, (3R)-3-((4-cyano-3-methylbenzoyl)amino)-N-(3-(cyclopropylmethyl)-1-isopropyl-2,4-dioxo-1,2,3,4-tetrahydroquinazolin-6-yl)piperidine-1-carboxamide] | 110 | 103 | 102
2 | Cc1ccc(F)c(C(=O)N[C@@H]2CCCN(C(=O)Nc3cc4c(=O)n(CC5CC5)c(=O)n(C(C)C)c4cc3F)C2)c1 [Example 283, (3R)-N-(3-(cyclopropylmethyl)-7-fluoro-1-isopropyl-2,4-dioxo-1,2,3,4-tetrahydroquinazolin-6-yl)-3-((2-fluoro-5-methylbenzoyl)amino)piperidine-1-carboxamide] | 108 | 101 | 102
3 | CC(C)n1c(=O)n(CC2CC2(F)F)c(=O)c2cc(NC(=O)N3CCOC(C(=O)Nc4cnc(C#N)c(Cl)c4)C3)c(F)cc21 (mixture of isomers) [Example 356, (2R)—N^2-(5-chloro-6-cyanopyridin-3-yl)-N^4-(3-((2,2-difluorocyclopropyl)methyl)-7-fluoro-1-isopropyl-2,4-dioxo-1,2,3,4-tetrahydroquinazolin-6-yl)morpholine-2,4-dicarboxamide (mixture of two stereoisomers)] | 108 | 107 | 102
4 | CC(C)n1c(=O)n(CC2CC2)c(=O)c2cc(NC(=O)N3CCC[C@@H](NC(=O)c4ccc5c(c4)CCO5)C3)ccc21 [Example 251, (3R)-N-(3-(cyclopropylmethyl)-1-isopropyl-2,4-dioxo-1,2,3,4-tetrahydroquinazolin-6-yl)-3-((2,3-dihydro-1-benzofuran-5-ylcarbonyl)amino)piperidine-1-carboxamide] | 105 | 102 | 102
5 | CC(C)n1c(=O)n(CC2CC(F)(F)C2)c(=O)c2cc(NC(=O)N3CCO[C@@H](C(=O)Nc4cc(Cl)c(C#N)cc4F)C3)c(F)cc21 [Example 351, (2R)—N^2-(5-chloro-4-cyano-2-fluorophenyl)-N^4-(3-((3,3-difluorocyclobutyl)methyl)-7-fluoro-1-isopropyl-2,4-dioxo-1,2,3,4-tetrahydroquinazolin-6-yl)morpholine-2,4-dicarboxamide] | 108 | 106 | 101
6 | CC(C)n1c(=O)n(CC2CC2)c(=O)c2cc(NC(=O)N3CCO[C@@H](C(=O)Nc4cc(Cl)c(C#N)cc4F)C3)c(F)cc21 [Example 347, (2R)—N^2-(5-chloro-4-cyano-2-fluorophenyl)-N^4-(3-(cyclopropylmethyl)-7-fluoro-1-isopropyl-2,4-dioxo-1,2,3,4-tetrahydroquinazolin-6-yl)morpholine-2,4-dicarboxamide] | 107 | 107 | 102
7 | CC(C)n1c(=O)n(CC2CC2)c(=O)c2cc(NC(=O)N3CCC[C@@H](NC(=O)c4ccc(C#N)cc4)C3)ccc21 [Example 218, (3R)-3-((4-cyanobenzoyl)amino)-N-(3-(cyclopropylmethyl)-1-isopropyl-2,4-dioxo-1,2,3,4-tetrahydroquinazolin-6-yl)piperidine-1-carboxamide] | 111 | 103 | 102
8 | Cc1ccc(F)c(C(=O)N[C@@H]2CCCN(C(=O)Nc3ccc4c(c3)c(=O)n(CC3CC3)c(=O)n4C(C)C)C2)c1 [Example 259, (3R)-N-(3-(Cyclopropylmethyl)-1-isopropyl-2,4-dioxo-1,2,3,4-tetrahydroquinazolin-6-yl)-3-((2-fluoro-5-methylbenzoyl)amino)piperidine-1-carboxamide] | 102 | 102 | 102
9 | CC(C)n1c(=O)n(CC2CC2)c(=O)c2cc(NC(=O)N3CCC[C@@H](N4Cc5ccc(Cl)cc5C4=O)C3)c(F)cc21 [Example 336, (3R)-3-(6-chloro-1-oxo-1,3-dihydro-2H-isoindol-2-yl)-N-(3-(cyclopropylmethyl)-7-fluoro-1-isopropyl-2,4-dioxo-1,2,3,4-tetrahydroquinazolin-6-yl)piperidine-1-carboxamide] | 106 | 106 | 102
10 | CC(C)n1c(=O)n(CC2CC2)c(=O)c2cc(NC(=O)N3CCNC(C(=O)Nc4ccc(C#N)c(Cl)c4)C3)ccc21 (stereo not drawn) [Example 82, N^3-(3-chloro-4-cyanophenyl)-N^1-(3-(cyclopropylmethyl)-1-isopropyl-2,4-dioxo-1,2,3,4-tetrahydroquinazolin-6-yl)piperazine-1,3-dicarboxamide] | 103 | 102 | 101
11 | CC(C)n1c(=O)n(CC2CC2)c(=O)c2cc(NC(=O)N3CCC[C@@H](NC(=O)c4cc(Cl)ccc4F)C3)c(F)cc21 [Example 282, (3R)-3-((5-chloro-2-fluorobenzoyl)amino)-N-(3-(cyclopropylmethyl)-7-fluoro-1-isopropyl-2,4-dioxo-1,2,3,4-tetrahydroquinazolin-6-yl)piperidine-1-carboxamide] | 108 | 102 | 102
12 | CC(C)n1c(=O)n(CC2CC2)c(=O)c2cc(NC(=O)N3CCC[C@@H](NC(=O)c4ccc(CNC(=O)OC(C)(C)C)cc4)C3)c(F)cc21 [Example 319, tert-Butyl (4-(((3R)-1-((3-(cyclopropylmethyl)-7-fluoro-1-isopropyl-2,4-dioxo-1,2,3,4-tetrahydroquinazolin-6-yl)carbamoyl)piperidin-3-yl)carbamoyl)benzyl)carbamate] | 95 | 103 | 101
13 | CC(C)n1c(=O)n(CC2CC2)c(=O)c2cc(NC(=O)N3CCC[C@@H](NC(=O)c4cccc(Cl)c4)C3)ccc21 [Example 248, (3R)-3-((3-chlorobenzoyl)amino)-N-(3-(cyclopropylmethyl)-1-isopropyl-2,4-dioxo-1,2,3,4-tetrahydroquinazolin-6-yl)piperidine-1-carboxamide] | 104 | 104 | 102
14 | CC(C)n1c(=O)n(CC2CC2)c(=O)c2cc(NC(=O)N3CCC[C@@H](NC(=O)c4ccc(C#N)cc4F)C3)ccc21 [Example 219, (3R)-3-((4-cyano-2-fluorobenzoyl)amino)-N-(3-(cyclopropylmethyl)-1-isopropyl-2,4-dioxo-1,2,3,4-tetrahydroquinazolin-6-yl)piperidine-1-carboxamide] | 110 | 101 | 102
